Data reported in patent US20240270692A1, “S(+) FORM OF 4-(2,4-DIFLUOROPHENYL)-2-(1H-INDOL-3-YL)-4-OXO-BUTANOIC ACID” (TOHOKU UNIVERSITY, priority 2021, published 2024).

What was measured:
[1] = Metabolism test using human liver microsomes (LC/HRMS); format: in vitro ADME; conditions: incubated 37° C. for 1 hour
Procedure: The S(+) form or the R(−) form of MA5 was dissolved in acetonitrile (for LC-MS, manufactured by Kanto Chemical Co., Inc.) and each adjusted to 10 mM. 855 mg of sucrose (manufactured by FUJIFILM Wako Pure Chemical Corporation) was dissolved in 10 mL of water to prepare a 250 mM sucrose solution, and then by using this solution, a liquid containing 20 mg/mL human liver microsomes (8-donor-pool, manufactured by Sekisui XenoTech, LLC) was diluted 4-fold to prepare a 5 mg/mL human liver microsome suspension. In a 1 mL tube, 5 μL of three test solutions (sucrose solution containing 10 mM S(+) form of MA5, sucrose solution containing 10 mM R(−) form of MA5, or control Vehicle [sucrose solution]), 5 μL of NADPH Regenerating System Solution B (manufactured by Corning Incorporated), 100 μL of UGT Reaction Mix Solution B (manufactured by Corning Incorporated), and 275 μL of water were added to 50 μL of the human liver microsome suspension, and the resulting mixture was shaken for 30 seconds and preincubated at 37° C. for 5 minutes. After that, 25 μL of NADPH Regenerating System Solution A (manufactured by Corning Incorporated) and 40 μL of UGT Reaction Mix Solution A (manufactured by Corning Incorporated) were added, and the resulting mixture was shaken for 30 seconds and incubated at 37° C. for 1 hour. The reaction was stopped by adding 500 μL of an ice-cold acetonitrile solution containing 0.1% formic acid, and the resulting mixture was shaken for 30 seconds, sonicated for 10 minutes, and then centrifuged at 20,000×g at 4° C. for 10 minutes. 50 μL of the supernatant was collected in a fresh 1 mL tube, centrifugally concentrated at 2,000 rpm at room temperature (25 to 35° C.) for 30 minutes, and frozen at −80° C. […]
Q-Exactive (manufactured by Thermo Fisher Scientific Inc.) was used as an HRMS apparatus. […] Additional MS^2 data were measured in target MS^2 mode for both positive and negative ions. […]

immt-1/mitofilin mutant = test: Evaluation of mitochondrial function: mitochondrial swelling in body wall muscle cells; format: in vivo, C. elegans; conditions: immt-1/mitofilin mutants, 10 μM, raised 5 days from L4 larval stage, compared with control DMSO
Procedure: It has been reported that in immt-1-deficient mutant C. elegans (hereinafter referred to as “immt-1/mitofilin mutant”), which is a C. elegans ortholog of the mitochondrial inner membrane protein (Mitofilin), mitochondria in muscle cells swell (see the literature “Journal of Cellular Physiology. 224 (2010) 748-756” and the literature “Molecular Biology of the Cell. 22 (2011) 831-841.”). Therefore, when three compounds (racemic form of MA5, S(+) form of MA5, or R(−) form of MA5) were administered to immt-1/mitofilin mutants, whether or not mitochondrial swelling was alleviated was analyzed.
As a comparative control, ccIs4251 wild-type C. elegans (obtained from CGC [Caenorhabditis Genetics Center]) was raised on a culture plate and analyzed in the same manner.

SMILES	glucuronide conjugates (+C6H8O6 [+1.7 min, +2.6 min]) [1]	number of swelling mitochondria per body wall muscle cell (immt-1/mitofilin mutant)	proportion of body wall muscle cells in which 5 or more swelling mitochondria per body wall muscle cell were observed (immt-1/mitofilin mutant)
O=C(C[C@@H](C(=O)O)c1c[nH]c2ccccc12)c1ccc(F)cc1F [R(−) form of MA5, 4-(2,4-difluorophenyl)-2-(1H-indol-3-yl)-4-oxo-butanoic acid]	detected	remained almost unchanged or only slightly decreased	remained almost unchanged or only slightly decreased
O=C(C[C@H](C(=O)O)c1c[nH]c2ccccc12)c1ccc(F)cc1F [S(+) form of MA5, 4-(2,4-difluorophenyl)-2-(1H-indol-3-yl)-4-oxo-butanoic acid]	detected only at a level that was little or no different from the control	greatly decreased	greatly decreased
